Assay results taken from patent publication US20120003154A1, “ARYLOXYANILIDE DERIVATIVES” (priority 2009, published 2012).
Like-named read-outs stand apart in the source and are kept apart here. Each block holds one compound with its values, some of them ahead of it.

Assays:
Wistar rat heart PBR = molecular target: T1, Wistar rat heart PBR (Rattus norvegicus, UniProt P16257); experiment: In vitro potency assay (competition binding against [3H]PK-11195)
T1 construct: PK-11195; from tissue; host or cells: Wistar rat heart
Experimental: Affinity for PBR was screened using a method adapted from Le Fur et al (Life Sci. 1983; USA 33: 449-57).
Each test compound (dissolved in 50 mM Tris-HCl, pH 7.4, 10 mM MgCl2 containing 1% DMSO) competed for binding to Wistar rat heart PBR against 0.3 nM [^3H] […] The reaction was carried out in 50 mM Tris-HCl, pH 7.4 10 mM MgCl2 for 15 minutes at 25° C.

PBR = conditions: Wilson et al Nuc. Med. Biol. 2008; cited from earlier work

- measured potency for PBR compared with [18F]-FE-PBR28 (Wistar rat heart PBR; relative to FE-PBR28): two orders of magnitude less
Compound: CC(=O)N(Cc1ccccc1OCC[18F])c1cccnc1Oc1ccccc1 [Imaging Agent 1]

- Ki (Wistar rat heart PBR; read-out: Ki): 4.24 nM
Compound: CC(=O)N(Cc1ccccc1OCCF)c1cccnc1Oc1ccccc1 [Non-radioactive imaging agent 1, N-[2(2-fluoroethoxy)benzyl]-N-(2-phenoxypyridin-3-yl)acetamide]

Compound: COc1ncccc1CN(C(=O)CF)c1ccccc1Oc1ccccc1 [Non-radioactive imaging agent 18, 2-Flouro-N-(2-methoxy-pyridin-3-ylmethyl)-N-(2-phenoxy-phenyl)-acetamide]
- Ki (Wistar rat heart PBR): 3.77 nM

- Ki (Wistar rat heart PBR; read-out: Ki): 1.02 nM
Compound: CC(=O)N(Cc1cccnc1OCCF)c1ccccc1Oc1ccccc1 [Non-radioactive imaging agent 19, N-[2-(2-Fluoro-ethoxy)-pyridin-3-ylmethyl]-N-(2-phenoxy-phenyl)-acetamide]

Compound: CC(=O)N(Cc1ccccc1OCC[18F])c1cnccc1Oc1ccccc1 [[^18F]-FE-PBR28]
- affinity for PBR in vitro (PBR): subnanomolar
